Experimental data published in US10392381B2, “Prevention and treatment of non-alcoholic fatty liver disease” (Ohio University, priority 2014, dated 2019).

Experiments:
[1] = test system: Patients at risk for developing NAFLD; experiment: Therapeutic use to prevent development of NAFLD in patients at risk (Example 10, contemplated); format: in vivo, human; details: once daily oral dose of 1 mg/kg, chronically
Experimental: Contemplated Experimental Protocol. Patients at risk for developing NAFLD are prescribed COB-204, COB-214, COB-152, or COB-187 to prevent excess accumulation of fat. Each patient takes a once daily oral dose of 1 mg/kg of body weight of the COB-204, COB-214, COB-152, or COB-187, chronically, during which fat content in the liver is determined via liver function testing, liver ultrasound, and liver biopsy.

[2] = test system: C57BL/6J mice on an HFD with NAFLD (liver tissue); experiment: Treatment of NAFLD in C57BL/6J mice fed a HFD (Example 8, contemplated); format: in vivo; details: C57BL/6J mice on HFD after NAFLD is observed; once daily ip 1, 3 or 10 mg/kg/day for up to 16 weeks (24 weeks if no effect)
Experimental: Contemplated Experimental Protocol. C57BL/6J mice are placed on an HFD containing 60% fat (by % Kcal) (Diet #D12492, Research Diets, Inc.) for a period of weeks (as determined by the results of Example 6) until development of NAFLD is observed and clearly distinguishable from LFD-fed mice of the same age (between 4-8 weeks). At the time or after NAFLD is observed, once daily ip injections of COB-204, COB-214, COB-152, COB-187, DMSO, or sham are administered. Five mice are then euthanized weekly thereafter to characterize the effects of the COB-204, COB-214, COB-152, COB-187, DMSO, and/or sham on treatment of NAFLD for the period of up to 16 weeks post-initiation of the COB-204, COB-214, COB-152, COB-187, DMSO, and sham administration. The period of time for which treatment is administered will be extended to 24 weeks if no effect of the COB-204, COB-214, COB-152, or COB-187 administration on treatment of NAFLD is observed. The following Table further illustrates the experimental design:
If no effect of the COB-204, COB-214, COB-152, or COB-187 administration on treatment of NAFLD is observed by 16 weeks post-initiation of the COB-204, COB-214, COB-152, COB-187, DMSO, and sham administration, a subsequent study is performed wherein the period of time is extended to 24 weeks of the COB-204, COB-214, COB-152, and COB-187 administration, with 5 mice euthanized weekly from weeks 17-24 as previously described. The following Table further illustrates the experimental design:
NAFLD is evaluated in the liver of the HFD mice macroscopically, microscopically, and molecularly. More specifically, following euthanasia, the liver of each mouse is removed, weighed, and photographs taken thereof for macroscopic and/or gross observation of NAFLD. Then, the liver of each mouse is split in half, wherein one half is used for microscopic analysis of NAFLD and the remaining half is used for molecular analysis of NAFLD (i.e., quantification of triglycerides). Quantification of triglycerides is performed in accordance with the general protocol described in Example 6.

Patients having NAFLD = experiment: Therapeutic use to treat NAFLD in patients (Example 11, contemplated); format: in vivo, human; details: once daily oral dose of 3 mg/kg
Experimental: Contemplated Experimental Protocol. Patients having NAFLD are prescribed COB-204, COB-214, COB-152, or COB-187 to reduce the fat content in their liver. After determination of a baseline level of fat content in each of the patients' livers, each patient takes a once daily oral dose of 3 mg/kg of body weight of the COB-204, COB-214, COB-152, or COB-187, during which fat content in each patient's liver tissue is determined via liver function testing, liver ultrasound, and liver biopsy.

[3] = test system: C57BL/6J mice on a HFD (liver tissue); experiment: Prevention of NAFLD in C57BL/6J mice fed a HFD (Example 7): macroscopic observation, hematoxylin and eosin histology, liver triglyceride quantification; format: in vivo; details: C57BL/6J mice on HFD; for mean triglyceride concentration (mg/g liver) in liver tissue compared with HFD or HFD + DMSO mice / Percentage of Triglyceride Values (mg/g liver) Below the Mean of the HFD + Sham Group / macroscopic observation of fatty liver disease compared with sham or DMSO injection: 1 mg/kg intraperitoneal once daily for 6 weeks; for mean triglyceride concentration (mg/g liver) in liver tissue compared with HFD or HFD + DMSO mice: comparison of means in FIG. 3; for Percentage of Triglyceride Values (mg/g liver) Below the Mean of the HFD + Sham Group: middle, right and left liver lobes (FIG. 3), 1 mg/kg; for macroscopic observation of fatty liver disease compared with sham or DMSO injection: removed liver tissue; for histological examination of hepatic fat accumulation compared with sham or DMSO injection: 1 mg/kg intraperitoneal once daily, middle lobe of liver, hematoxylin and eosin (FIG. 4)
Experimental: Quantification of triglycerides of the middle, right, and left lobes was performed to ensure that accumulation (or lack thereof) of triglycerides was similar in each lobe of the liver and to ensure that a representative analysis of triglyceride accumulation in the liver as a whole was assessed. The caudate lobe was excluded since the caudate lobe is very small compared to the middle, right, and left lobes. Triglycerides were quantified in accordance with the following general protocol, based upon the Salmon and Flatt Method of Liver Saponification. 50-100 mg of liver tissue was placed into an Eppendorf tube and weighed. Equal volume per weight of 3 M KOH (in 65% EtOH) was added to the tube and vortexed. The tube was placed at 70° C. for 1 hr to activate digestion. The tubes were vortexed every 15 minutes. The tube was set at room temperature overnight to allow for complete digestion, and was vortexed periodically. The sample was diluted to a final concentration of 100 mg of liver tissue per 600 μl fluid; the sample was diluted by adding 2 M Tris-HCl (un-pHed) to a final concentration of 50 mM. Where a second dilution was required, the sample was diluted using 50 mM Tris-HCl (pH 7.5). Triglycerides-GPO (0.5 mL, liquid; Pointe Scientific Cat. No. T7532-500; Fisher Scientific, Pittsburgh, Pa.) were aliquoted into Eppendorf tubes and warmed in a 37° C. water bath for 5-10 minutes. Glycerol standards (0, 1, 2.5, 5, 7.5 and 10 mmol/L) were made by diluting 10 mmol/L stock of glycerol, such as, e.g., with 50 mM Tris-HCl. 5 μL of the sample and glycerol standards (0, 1, 2.5, 5, 7.5 and 10 mmol/L) were added to 0.5 mL of the triglycerides-GPO, mixed, and incubated at room temperature for 5 minutes. The mixture was then vortexed and added (200 μL) to each well of a 96-well flat-bottom ELISA plate (in triplicate). Absorbance (i.e., optical density) was read at 500 nm. The concentrations of the samples were determined via use of a plot of glycerol standards concentration (mmol/L) with respect to optical density (i.e., O.D.) at 500 nm. The concentration of glycerol (mg glycerol/g tissue) was then calculated and triglyceride concentration was determined, in accordance with calculations known to those of ordinary skill in the art.
Experimental Protocol. 7 week old male C57BL/6J mice (i.e., a mouse model of obesity-induced insulin resistance and Type 2 Diabetes Mellitus) were placed on a HFD (i.e., having a fat content of 60%, a protein content of 20%, and a carbohydrate content of […], N=50). The C57BL/6J mice on the HFD were divided into five groups, wherein one such group was immediately given an intraperitoneal sham injection (i.e., Group 1, serving as a stress control N=10), another group was immediately given an intraperiteonal injection of dimethyl sulfoxide (hereinafter, “DMSO”, i.e., Group 2, serving as a vehicle control, N=10), another group was immediately given an intraperitoneal injection of 1 mg/kg COB-204 (i.e., Group 3, N=10), another group was immediately given an intraperitoneal injection of 1 mg/kg COB-214 (i.e., Group 4, N=10), and another group was immediately given an intraperitoneal injection of 1 mg/kg COB-187 (i.e., Group 5, N=10). Such injections were initiated with the HFD and were given to the C57BL/6J mice on the HFD once daily for a period of 6 weeks. Food intake and total body weight of the C57BL/6J mice were measured weekly.
At 0 weeks, some of the C57BL/6J mice from each of Groups 1-5 were euthanized (N=5). Liver tissue of the C57BL/6J mice euthanized at 0 weeks was harvested and divided into lobes, including the middle lobe, the right lobe, and the left lobe, for morphological (i.e., hematoxylin and eosin staining) and molecular analysis (i.e., quanitification of triglycerides). The caudate lobe was excluded from such division as the caudate lobe is very small compared to the middle, right, and left lobes. […]

Structure (SMILES)	excess accumulation of fat in the liver of patients [1]	fat content in the liver tissue of the mice [2]	fat content in the patient's liver (Patients having NAFLD)	mean triglyceride concentration (mg/g liver) in liver tissue compared with HFD or HFD + DMSO mice [3]	Percentage of Triglyceride Values (mg/g liver) Below the Mean of the HFD + Sham Group [3] [%]	macroscopic observation of fatty liver disease compared with sham or DMSO injection [3]	histological examination of hepatic fat accumulation compared with sham or DMSO injection [3]
COc1ccc(-c2csc(=S)n2Cc2cccnc2)c(OC)c1 [COB-204]	no excess accumulation of fat	reduced relative to a baseline level	reduced relative to the baseline level	no effect	60	much less fatty liver disease	much less hepatic fat accumulation
OC1(c2ccccc2)CSC(=S)N1Cc1ccncc1 (stereo not drawn) [COB-187]	no excess accumulation of fat	reduced relative to a baseline level	reduced relative to the baseline level	lower mean triglyceride concentration	79	much less fatty liver disease	much less hepatic fat accumulation
CCCn1c(-c2cccnc2)csc1=S [COB-214]	no excess accumulation of fat	reduced relative to a baseline level	reduced relative to the baseline level	lower mean triglyceride concentration	87	much less fatty liver disease	much less hepatic fat accumulation
OC1(c2ccccc2)CSC(=S)N1Cc1cccnc1 (stereo not drawn) [COB-152]	no excess accumulation of fat	reduced relative to a baseline level	reduced relative to the baseline level				
